Among the data in US12071441B2, “10-(di(phenyl)methyl)-4-hydroxy-8,9,9A,10-tetrahydro-7H-pyrrolo[1′,2′:4,5]pyrazino[1,2-b]pyridazine-3,5-dione derivatives and related compounds as inhibitors of the orthomyxovirus replication for treating influenza” (Novartis AG, priority 2018, dated 2024) are EC50 values, retold here.

Common to all, as to assay: microbe, parasite or virus in culture
Format in all cases: cell-based

The test system of assay [1] is influenza A virus minigenome (PB2, PB1, PA, NP; luciferase reporter) in 293T cells, RNP_Hubei. Particulars: HEK-293T, 48 h.
Assay [2] has as its system influenza A virus minigenome (PB2, PB1, PA, NP; luciferase reporter) in 293T cells, RNP_Alaska. The settings on record: HEK-293T, 48 h.
Assay [3] has as its system influenza A virus minigenome (PB2, PB1, PA, NP; luciferase reporter) in 293T cells, RNP_CAL. Particulars: HEK-293T, 48 h, read-out: RNP_CAL_EC50.

With `COC(=O)c1ccccc1C(=O)Oc1c2n(ncc1=O)[C@@H]([C@H](c1ccccc1)c1cccc(F)c1F)[C@H]1CCCN1C2=O` [Example 70, (9aR,10S)-10-((R)-(2,3-difluorophenyl)(phenyl)methyl)-3,5-dioxo-3,5,8,9,9a,10-hexahydro-7H-pyrrolo[1′,2′:4,5]pyrazino[1,2-b]pyridazin-4-yl methyl phthalate], the EC50 in assay [1], in assay [2] and in assay [3] was under 100 nM each time.
As for `CCN(CC)C(=O)Oc1c2n(ncc1=O)[C@@H]([C@H](c1ccccc1)c1cccc(F)c1F)[C@H]1CCCN1C2=O` [Example 71, (9aR,10S)-10-((R)-(2,3-difluorophenyl)(phenyl)methyl)-3,5-dioxo-3,5,8,9,9a,10-hexahydro-7H-pyrrolo[1′,2′:4,5]pyrazino[1,2-b]pyridazin-4-yl diethylcarbamate], the EC50 in assay [1], in assay [2] and in assay [3] was 100 to 1000 nM throughout.
Regarding `CC(C)CC(=O)OCOc1c2n(ncc1=O)[C@@H]([C@H](c1ccccc1)c1cccc(F)c1F)[C@H]1CCCN1C2=O` [Example 72, (((9aR,10S)-10-((R)-(2,3-difluorophenyl)(phenyl)methyl)-3,5-dioxo-3,5,8,9,9a,10-hexahydro-7H-pyrrolo[1′,2′:4,5]pyrazino[1,2-b]pyridazin-4-yl)oxy)methyl 3-methylbutanoate], the EC50 in assay [1], in assay [2] and in assay [3] was under 100 nM in each case.
On to `O=C(CC1CCOCC1)Oc1c2n(ncc1=O)[C@@H]([C@H](c1ccccc1)c1cccc(F)c1F)[C@H]1CCCN1C2=O` [Example 73, (9aR,10S)-10-((R)-(2,3-difluorophenyl)(phenyl)methyl)-3,5-dioxo-3,5,8,9,9a,10-hexahydro-7H-pyrrolo[1′,2′:4,5]pyrazino[1,2-b]pyridazin-4-yl 2-(tetrahydro-2H-pyran-4-yl)acetate], for which the EC50 in assay [1], in assay [2] and in assay [3] was under 100 nM each time.
Regarding `O=C(Oc1c2n(ncc1=O)[C@@H]([C@H](c1ccccc1)c1cccc(F)c1F)[C@H]1CCCN1C2=O)OC1CCOCC1` [Example 74, (9aR,10S)-10-((R)-(2,3-difluorophenyl)(phenyl)methyl)-3,5-dioxo-3,5,8,9,9a,10-hexahydro-7H-pyrrolo[1′,2′:4,5]pyrazino[1,2-b]pyridazin-4-yl (tetrahydro-2H-pyran-4-yl) carbonate], the EC50 in assay [1], in assay [2] and in assay [3] was under 100 nM throughout.
For the compound `O=C(Oc1c2n(ncc1=O)[C@@H]([C@H](c1ccccc1)c1cccc(F)c1F)[C@H]1CCCN1C2=O)C1CCOCC1` [Example 75, (9aR,10S)-10-((R)-(2,3-difluorophenyl)(phenyl)methyl)-3,5-dioxo-3,5,8,9,9a,10-hexahydro-7H-pyrrolo[1′,2′:4,5]pyrazino[1,2-b]pyridazin-4-yl tetrahydro-2H-pyran-4-carboxylate], the EC50 in assay [1], in assay [2] and in assay [3] was under 100 nM each time.
`CC(=O)OCOc1c2n(ncc1=O)[C@@H]([C@H](c1ccccc1)c1cccc(F)c1F)[C@H]1CCCN1C2=O` [Example 76, (((9aR,10S)-10-((R)-(2,3-difluorophenyl)(phenyl)methyl)-3,5-dioxo-3,5,8,9,9a,10-hexahydro-7H-pyrrolo[1′,2′:4,5]pyrazino[1,2-b]pyridazin-4-yl)oxy)methyl acetate]: the EC50 in assay [1], in assay [2] and in assay [3] was under 100 nM in each case.
With `CCC(=O)OCOc1c2n(ncc1=O)[C@@H]([C@H](c1ccccc1)c1cccc(F)c1F)[C@H]1CCCN1C2=O` [Example 77, (((9aR,10S)-10-((R)-(2,3-difluorophenyl)(phenyl)methyl)-3,5-dioxo-3,5,8,9,9a,10-hexahydro-7H-pyrrolo[1′,2′:4,5]pyrazino[1,2-b]pyridazin-4-yl)oxy)methyl propionate], the EC50 in assay [1], in assay [2] and in assay [3] was under 100 nM in each case.
Consider `Cc1oc(=O)oc1COc1c2n(ncc1=O)[C@@H]([C@H](c1ccc(F)cc1)c1cccc(F)c1F)[C@H]1CCCN1C2=O` [Example 80, (9aR,10S)-10-((R)-(2,3-difluorophenyl)(4-fluorophenyl)methyl)-4-((5-methyl-2-oxo-1,3-dioxol-4-yl)methoxy)-8,9,9a,10-tetrahydro-7H-pyrrolo[1′,2′:4,5]pyrazino[1,2-b]pyridazine-3,5-dione], for which the EC50 in assay [1], in assay [2] and in assay [3] was under 100 nM throughout.
For the compound `COC(=O)OCOc1c2n(ncc1=O)[C@@H]([C@H](c1ccc(F)cc1)c1cccc(F)c1F)[C@H]1CCCN1C2=O` [Example 82, (((9aR,10S)-10-((R)-(2,3-difluorophenyl)(4-fluorophenyl)methyl)-3,5-dioxo-3,5,8,9,9a,10-hexahydro-7H-pyrrolo[1′,2′:4,5]pyrazino[1,2-b]pyridazin-4-yl)oxy)methyl methyl carbonate], the EC50 in assay [1], in assay [2] and in assay [3] was under 100 nM in each case.
Regarding `CC(=O)Oc1c2n(ncc1=O)[C@@H]([C@H](c1ccc(F)cc1)c1cccc(F)c1F)[C@H]1CCCN1C2=O` [Example 83, (9aR,10S)-10-((R)-(2,3-difluorophenyl)(4-fluorophenyl)methyl)-3,5-dioxo-3,5,8,9,9a,10-hexahydro-7H-pyrrolo[1′,2′:4,5]pyrazino[1,2-b]pyridazin-4-yl acetate], the EC50 in assay [1], in assay [2] and in assay [3] was under 100 nM throughout.
With `CC(C)C(=O)Oc1c2n(ncc1=O)[C@@H]([C@H](c1ccc(F)cc1)c1cccc(F)c1F)[C@H]1CCCN1C2=O` [Example 84, (9aR,10S)-10-((R)-(2,3-difluorophenyl)(4-fluorophenyl)methyl)-3,5-dioxo-3,5,8,9,9a,10-hexahydro-7H-pyrrolo[1′,2′:4,5]pyrazino[1,2-b]pyridazin-4-yl isobutyrate], the EC50 in assay [1], in assay [2] and in assay [3] was under 100 nM in each case.
On to `CN(C)C(=O)OCOc1c2n(ncc1=O)[C@@H]([C@H](c1ccc(F)cc1)c1cccc(F)c1F)[C@H]1CCCN1C2=O` [Example 85, (((9aR,10S)-10-((R)-(2,3-difluorophenyl)(4-fluorophenyl)methyl)-3,5-dioxo-3,5,8,9,9a,10-hexahydro-7H-pyrrolo[1′,2′:4,5]pyrazino[1,2-b]pyridazin-4-yl)oxy)methyl dimethylcarbamate], for which the EC50 is 100 to 1000 nM in assay [1], at least 1000 nM in assay [2] and 100 to 1000 nM in assay [3].
As for `COCCOC(=O)OCOc1c2n(ncc1=O)[C@@H]([C@H](c1ccc(F)cc1)c1cccc(F)c1F)[C@H]1CCCN1C2=O` [Example 86, (((9aR,10S)-10-((R)-(2,3-difluorophenyl)(4-fluorophenyl)methyl)-3,5-dioxo-3,5,8,9,9a,10-hexahydro-7H-pyrrolo[1′,2′:4,5]pyrazino[1,2-b]pyridazin-4-yl)oxy)methyl (2-methoxyethyl) carbonate], the EC50 in assay [1], in assay [2] and in assay [3] was under 100 nM each time.
`CC(C)OC(=O)Oc1c2n(ncc1=O)[C@@H]([C@H](c1ccc(F)cc1)c1cccc(F)c1F)[C@H]1CCCN1C2=O` [Example 88, (9aR,10S)-10-((R)-(2,3-difluorophenyl)(4-fluorophenyl)methyl)-3,5-dioxo-3,5,8,9,9a,10-hexahydro-7H-pyrrolo[1′,2′:4,5]pyrazino[1,2-b]pyridazin-4-yl isopropyl carbonate]: the EC50 in assay [1], in assay [2] and in assay [3] was under 100 nM in each case.
As for `CCOC(=O)OCOc1c2n(ncc1=O)[C@@H]([C@H](c1ccc(F)cc1)c1cccc(F)c1F)[C@H]1CCCN1C2=O` [Example 92, (((9aR,10S)-10-((R)-(2,3-difluorophenyl)(4-fluorophenyl)methyl)-3,5-dioxo-3,5,8,9,9a,10-hexahydro-7H-pyrrolo[1′,2′:4,5]pyrazino[1,2-b]pyridazin-4-yl)oxy)methyl ethyl carbonate], the EC50 in assay [1], in assay [2] and in assay [3] was under 100 nM in each case.
In the case of `CC(C)CC(=O)Oc1c2n(ncc1=O)[C@@H]([C@H](c1ccc(F)cc1)c1cccc(F)c1F)[C@H]1CCCN1C2=O` [Example 93, (9aR,10S)-10-((R)-(2,3-difluorophenyl)(4-fluorophenyl)methyl)-3,5-dioxo-3,5,8,9,9a,10-hexahydro-7H-pyrrolo[1′,2′:4,5]pyrazino[1,2-b]pyridazin-4-yl 3-methylbutanoate], the EC50 in assay [1], in assay [2] and in assay [3] was under 100 nM throughout.
In the case of `COC(=O)OCOc1c2n(ncc1=O)[C@@H]([C@H](c1cccc(F)c1)c1cccc(F)c1F)[C@H]1CCCN1C2=O` [Example 95, (((9aR,10S)-10-((R)-(2,3-difluorophenyl)(3-fluorophenyl)methyl)-3,5-dioxo-3,5,8,9,9a,10-hexahydro-7H-pyrrolo[1′,2′:4,5]pyrazino[1,2-b]pyridazin-4-yl)oxy)methyl methyl carbonate], the EC50 in assay [1], in assay [2] and in assay [3] was under 100 nM in each case.
As for `CN(C)C(=O)Oc1c2n(ncc1=O)[C@@H]([C@H](c1cccc(F)c1)c1cccc(F)c1F)[C@H]1CCCN1C2=O` [Example 96, (9aR,10S)-10-((R)-(2,3-difluorophenyl)(3-fluorophenyl)methyl)-3,5-dioxo-3,5,8,9,9a,10-hexahydro-7H-pyrrolo[1′,2′:4,5]pyrazino[1,2-b]pyridazin-4-yl dimethylcarbamate], the EC50 in assay [1] was 100 to 1000 nM; in assay [2] it was at least 1000 nM; in assay [3], at least 1000 nM.
